Like-named read-outs stand apart in the source and are kept apart here.
Tests used:
Assay type in all cases: in vivo
Diabrotica balteata = Diabrotica balteata (corn root worm), sprayed maize sprouts; settings: 96 h, read-out: effect in at least one of the two categories (mortality or growth inhibition); for percent effect (mortality or growth inhibition) at 200 ppm: application rate 200 ppm, L2 larvae, 4 days after infestation
Procedure, shortened: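 Read-out at 4 days post-infestation: mortality and growth inhibition relative to untreated samples. Test solutions (200 ppm, from DMSO stocks) were sprayed onto agar-held maize sprouts, which after drying received 6–10 L2 larvae per well.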

Thrips tabaci = Thrips tabaci (onion thrips): feeding/contact activity; settings: 144 h
Description: Sunflower leaf discs were placed on agar in 24-well microtiter plates and sprayed with aqueous test solutions prepared from 10'000 ppm DMSO stock solutions. After drying the leaf discs were infested with a Thrips population of mixed ages. The samples were assessed for mortality 6 days after infestation.

Myzus persicae = Myzus persicae (green peach aphid): feeding/contact activity; settings: 144 h
Description: Sunflower leaf discs were placed onto agar in a 24-well microtiter plate and sprayed with aqueous test solutions prepared from 10'000 ppm DMSO stock solutions. After drying, the leaf discs were infested with an aphid population of mixed ages. The samples were assessed for mortality 6 days after infestation.

Plutella xylostella = Plutella xylostella (diamond back moth), artificial diet; settings: 120 h, read-out: effect in at least one of the two categories (mortality or growth inhibition); for percent effect (mortality or growth inhibition) at 200 ppm: application rate 200 ppm, L2 larvae, 5 days after infestation
Procedure, shortened: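 L2 larvae (10-15 per well) fed on compound-treated, dried artificial diet; test solutions diluted in water from 10'000 ppm DMSO stocks. Readout 5 days post-infestation as mortality or growth inhibition versus untreated diet, with at least 80% effect at 200 ppm as threshold.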

Spodoptera littoralis [1] = experiment: Spodoptera littoralis (Egyptian cotton leaf worm), uptake by lettuce roots from agar; settings: 144 h, read-out: effect in at least one of the three categories (mortality, anti-feeding, or growth inhibition)
Text: Test compounds were applied by pipette from 10'000 ppm DMSO stock solutions into 24-well plates and mixed with agar. Lettuce seeds were placed onto the agar and the multi well plate was closed by another plate which contained also agar. After 7 days the compound was absorbed by the roots and the lettuce grew into the lid plate. The lettuce leaves were then cut off into the lid plate. Spodoptera eggs were pipetted through a plastic stencil onto a humid gel blotting paper and the lid plate was closed with it. The samples were assessed for mortality, anti-feedant effect and growth inhibition in comparison to untreated samples 6 days after infestation.
The following compounds gave an effect of at least 80% in at least one of the three categories (mortality, anti-feeding, or growth inhibition) at a test rate of 12.5 ppm: […]

Spodoptera littoralis [2] = experiment: Spodoptera littoralis (Egyptian cotton leaf worm), sprayed cotton leaf discs; settings: foliar, 72 h, read-out: control (mortality, anti-feeding effect, growth inhibition)
Procedure, shortened: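 Five first-instar larvae placed on dried cotton leaf discs (on agar) previously sprayed with aqueous dilutions of 10'000 ppm DMSO stocks. Scored at 3 days against untreated discs for mortality, feeding inhibition and growth inhibition; any category above untreated counts as control.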

Tetranychus urticae = Tetranychus urticae (two-spotted spider mite): feeding/contact activity; settings: 192 h
Description: Bean leaf discs on agar in 24-well microtiter plates were sprayed with aqueous test solutions prepared from 10'000 ppm DMSO stock solutions. After drying the leaf discs were infested with a mite population of mixed ages. The samples were assessed for mortality on mixed population (mobile stages) 8 days after infestation.

Euschistus heros = Euschistus heros (neotropical brown stink bug), sprayed soybean leaves; settings: 120 h, read-out: effect in at least one of the two categories (mortality or growth inhibition); for percent effect (mortality or growth inhibition) at 200 ppm: application rate 200 ppm, N2 nymphs, 5 days after infestation
Procedure, shortened: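 Scored 5 days post-infestation versus untreated controls, for both mortality and growth inhibition: N2 nymphs placed on agar-mounted soybean leaves previously sprayed at 200 ppm with aqueous test solutions from DMSO stocks and left to dry.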

[3] = application rate 200 ppm, Thrips population of mixed ages, 6 days after infestation, read-out: mortality
[4] = application rate 200 ppm, aphid population of mixed ages, 6 days after infestation, read-out: mortality
[5] = application rate 200 ppm, L1 larvae, 3 days after infestation
[6] = application rate 200 ppm, mixed population (mobile stages), 8 days after infestation, read-out: mortality

CN(C)S(=O)(=O)N1CC(NC(=O)c2ccc(C3=NO[C@@](c4cc(Cl)c(Cl)c(Cl)c4)(C(F)(F)F)C3)cc2Cl)CO1 (stereo partly drawn) [Compound A32, 2-chloro-N-[2-(dimethylsulfamoyl)isoxazolidin-4-yl]-4-[(5S)-5-(3,4,5-trichlorophenyl)-5-(trifluoromethyl)-4H-isoxazol-3-yl]benzamide]
≥ 80%: percent effect (mortality or growth inhibition) at 200 ppm (Diabrotica balteata) | mortality at 200 ppm (Thrips tabaci; [3]) | mortality at 200 ppm (Myzus persicae; [4]) | percent effect (mortality or growth inhibition) at 200 ppm (Plutella xylostella) | percent control (mortality, anti-feedant effect or growth inhibition) at 12.5 ppm (Spodoptera littoralis [1]) | mortality at 200 ppm (Spodoptera littoralis [2]; [5]) | mortality at 200 ppm (Tetranychus urticae; [6])

O=C(NC1CON(S(=O)(=O)C2CC2)C1)c1ccc(C2=NO[C@@](c3cc(Cl)c(F)c(Cl)c3)(C(F)(F)F)C2)cc1Cl (stereo partly drawn) [Compound A24, 2-chloro-N-(2-cyclopropylsulfonylisoxazolidin-4-yl)-4-[(5S)-5-(3,5-dichloro-4-fluoro-phenyl)-5-(trifluoromethyl)-4H-isoxazol-3-yl]benzamide]
≥ 80%: percent effect (mortality or growth inhibition) at 200 ppm (Diabrotica balteata) | mortality at 200 ppm (Thrips tabaci; [3]) | mortality at 200 ppm (Myzus persicae; [4]) | percent effect (mortality or growth inhibition) at 200 ppm (Plutella xylostella) | percent control (mortality, anti-feedant effect or growth inhibition) at 12.5 ppm (Spodoptera littoralis [1]) | mortality at 200 ppm (Spodoptera littoralis [2]; [5]) | mortality at 200 ppm (Tetranychus urticae; [6])

Cc1cc(C2=NOC(c3cc(Cl)cc(Cl)c3)(C(F)(F)F)C2)ncc1C(=O)NC1CON(S(C)(=O)=O)C1 (stereo not shown) [Compound A236]
≥ 80%: percent effect (mortality or growth inhibition) at 200 ppm (Diabrotica balteata) | mortality at 200 ppm (Thrips tabaci; [3]) | percent effect (mortality or growth inhibition) at 200 ppm (Plutella xylostella) | percent effect (mortality or growth inhibition) at 200 ppm (Euschistus heros) | percent control (mortality, anti-feedant effect or growth inhibition) at 12.5 ppm (Spodoptera littoralis [1]) | mortality at 200 ppm (Spodoptera littoralis [2]; [5]) | mortality at 200 ppm (Tetranychus urticae; [6])

Cc1cc(C2=NOC(c3cc(C(F)(F)F)c(Cl)c(C(F)(F)F)c3)(C(F)(F)F)C2)ccc1C(=O)NC1CON(S(C)(=O)=O)C1 (stereo not shown) [Compound A57]
≥ 80%: percent effect (mortality or growth inhibition) at 200 ppm (Diabrotica balteata) | mortality at 200 ppm (Thrips tabaci; [3]) | percent effect (mortality or growth inhibition) at 200 ppm (Plutella xylostella) | percent effect (mortality or growth inhibition) at 200 ppm (Euschistus heros) | percent control (mortality, anti-feedant effect or growth inhibition) at 12.5 ppm (Spodoptera littoralis [1]) | mortality at 200 ppm (Spodoptera littoralis [2]; [5]) | mortality at 200 ppm (Tetranychus urticae; [6])

Cc1cc(C2=NO[C@@](c3cc(Cl)cc(C(F)(F)F)c3)(C(F)(F)F)C2)ccc1C(=O)NC1CON(S(=O)(=O)N(C)C)C1 (stereo partly shown) [Compound A22]
≥ 80%: percent effect (mortality or growth inhibition) at 200 ppm (Diabrotica balteata) | mortality at 200 ppm (Thrips tabaci; [3]) | mortality at 200 ppm (Myzus persicae; [4]) | percent effect (mortality or growth inhibition) at 200 ppm (Plutella xylostella) | percent control (mortality, anti-feedant effect or growth inhibition) at 12.5 ppm (Spodoptera littoralis [1]) | mortality at 200 ppm (Spodoptera littoralis [2]; [5]) | mortality at 200 ppm (Tetranychus urticae; [6])

CS(=O)(=O)N1CC(NC(=O)c2ccc(C3=NOC(c4cc(Cl)cc(Cl)c4)(C(F)(F)F)C3)cc2Br)CO1 (stereo not shown) [Compound A48]
≥ 80%: percent effect (mortality or growth inhibition) at 200 ppm (Diabrotica balteata) | mortality at 200 ppm (Thrips tabaci; [3]) | percent effect (mortality or growth inhibition) at 200 ppm (Plutella xylostella) | percent effect (mortality or growth inhibition) at 200 ppm (Euschistus heros) | percent control (mortality, anti-feedant effect or growth inhibition) at 12.5 ppm (Spodoptera littoralis [1]) | mortality at 200 ppm (Spodoptera littoralis [2]; [5]) | mortality at 200 ppm (Tetranychus urticae; [6])

Cc1cc(C2=NO[C@@](c3cc(Cl)c(F)c(Cl)c3)(C(F)(F)F)C2)ccc1C(=O)NC1CON(S(=O)(=O)CC(F)(F)F)C1 (stereo partly shown) [Compound A8]
≥ 80%: percent effect (mortality or growth inhibition) at 200 ppm (Diabrotica balteata) | mortality at 200 ppm (Thrips tabaci; [3]) | percent effect (mortality or growth inhibition) at 200 ppm (Plutella xylostella) | percent effect (mortality or growth inhibition) at 200 ppm (Euschistus heros) | percent control (mortality, anti-feedant effect or growth inhibition) at 12.5 ppm (Spodoptera littoralis [1]) | mortality at 200 ppm (Spodoptera littoralis [2]; [5]) | mortality at 200 ppm (Tetranychus urticae; [6])

CCS(=O)(=O)N1C[C@@H](NC(=O)c2ccc(C3=NO[C@@](c4cccc(C(F)(F)F)c4)(C(F)(F)F)C3)cc2C)CO1 [Compound A160]
≥ 80%: percent effect (mortality or growth inhibition) at 200 ppm (Diabrotica balteata) | mortality at 200 ppm (Thrips tabaci; [3]) | percent effect (mortality or growth inhibition) at 200 ppm (Plutella xylostella) | percent effect (mortality or growth inhibition) at 200 ppm (Euschistus heros) | percent effect (mortality, anti-feeding or growth inhibition) at 12.5 ppm (Spodoptera littoralis [1]; test rate 12.5 ppm, eggs, 6 days after infestation) | mortality at 200 ppm (Spodoptera littoralis [2]; [5]) | mortality at 200 ppm (Tetranychus urticae; [6])

CS(=O)(=O)N1CC(NC(=O)c2ccc(C3=NOC(c4cc(Cl)cc(Cl)c4)(C(F)(F)F)C3)cc2C2CC2)CO1 (stereo not shown) [Compound A52]
≥ 80%: percent effect (mortality or growth inhibition) at 200 ppm (Diabrotica balteata) | mortality at 200 ppm (Thrips tabaci; [3]) | percent effect (mortality or growth inhibition) at 200 ppm (Plutella xylostella) | percent effect (mortality or growth inhibition) at 200 ppm (Euschistus heros) | percent control (mortality, anti-feedant effect or growth inhibition) at 12.5 ppm (Spodoptera littoralis [1]) | mortality at 200 ppm (Spodoptera littoralis [2]; [5]) | mortality at 200 ppm (Tetranychus urticae; [6])

Cc1cc(C2=NO[C@@](c3cc(Cl)c(F)c(Cl)c3)(C(F)(F)F)C2)ccc1C(=O)NC1CON(S(=O)(=O)CCCl)C1 (stereo partly drawn) [Compound A7, N-[2-(2-chloroethylsulfonyl)isoxazolidin-4-yl]-4-[(5S)-5-(3,5-dichloro-4-fluoro-phenyl)-5-(trifluoromethyl)-4H-isoxazol-3-yl]-2-methyl-benzamide]
≥ 80%: percent control (mortality or growth inhibition) at 200 ppm (Diabrotica balteata) | mortality at 200 ppm (Thrips tabaci) | mortality at 200 ppm (Myzus persicae) | percent control (mortality or growth inhibition) at 200 ppm (Plutella xylostella) | percent control (mortality or growth inhibition) at 200 ppm (Euschistus heros) | mortality at 200 ppm (Spodoptera littoralis [2]) | mortality at 200 ppm (Tetranychus urticae)

Cc1cc(C2=NO[C@@](c3cc(Cl)cc(Cl)c3)(C(F)(F)F)C2)ccc1C(=O)N[C@@H]1CON(S(=O)(=O)CF)C1 [Compound A210]
≥ 80%: percent effect (mortality or growth inhibition) at 200 ppm (Diabrotica balteata) | mortality at 200 ppm (Thrips tabaci; [3]) | mortality at 200 ppm (Myzus persicae; [4]) | percent effect (mortality or growth inhibition) at 200 ppm (Plutella xylostella) | percent effect (mortality or growth inhibition) at 200 ppm (Euschistus heros) | mortality at 200 ppm (Spodoptera littoralis [2]; [5]) | mortality at 200 ppm (Tetranychus urticae; [6])

Cc1cc(C(F)(F)F)cc([C@@]2(C(F)(F)F)CC(c3ccc(C(=O)N[C@@H]4CON(S(C)(=O)=O)C4)c(C)c3)=NO2)c1 [Compound A212]
≥ 80%: percent effect (mortality or growth inhibition) at 200 ppm (Diabrotica balteata) | mortality at 200 ppm (Thrips tabaci; [3]) | mortality at 200 ppm (Myzus persicae; [4]) | percent effect (mortality or growth inhibition) at 200 ppm (Plutella xylostella) | percent effect (mortality or growth inhibition) at 200 ppm (Euschistus heros) | mortality at 200 ppm (Spodoptera littoralis [2]; [5]) | mortality at 200 ppm (Tetranychus urticae; [6])

CCS(=O)(=O)N1CC(NC(=O)c2ccc(C3=NO[C@@](c4cc(Cl)c(F)c(Cl)c4)(C(F)(F)F)C3)cc2C)CO1 (stereo partly shown) [Compound A4]
≥ 80%: percent effect (mortality or growth inhibition) at 200 ppm (Diabrotica balteata) | mortality at 200 ppm (Thrips tabaci; [3]) | mortality at 200 ppm (Myzus persicae; [4]) | percent effect (mortality or growth inhibition) at 200 ppm (Plutella xylostella) | percent effect (mortality or growth inhibition) at 200 ppm (Euschistus heros) | mortality at 200 ppm (Spodoptera littoralis [2]; [5]) | mortality at 200 ppm (Tetranychus urticae; [6])

Source: patent US10588317B2, “Isoxazoline-substituted benzamides and analogues as insecticides” (priority 2015, dated 2020)
